Our source for the IC50 values is BindingDB's records for doi:10.1021/jm990095j (Medivir, 1999).

Assay in all cases: HIV-1 RT Assay
The target of assay [1] is T1, Gag-Pol polyprotein [588-1027,K690N]/[588-1147,K690N] (Human immunodeficiency virus 1, UniProt P04585, K690N).
T1 construct: 588-1027; 588-1147

The target in assay [2] is T2, Gag-Pol polyprotein [588-1027]/[588-1147] (Human immunodeficiency virus 1, UniProt P04585).
T2 construct: 588-1027; 588-1147

In assay [3] the target is T3, Gag-Pol polyprotein [588-1127,Y768C]/[588-1147,Y768C] (Human immunodeficiency virus 1, UniProt P04585, Y768C).
T3 construct: 588-1127; 588-1147

Regarding `CN(C)c1ccc(F)c(CCNC(=O)Nc2ccc(Br)cn2)c1F`, the IC50 was more than 2500 nM in assay [1] (pH 7.8, 37 °C) and 25 nM in assay [2] (pH 7.8, 37 °C). In the case of `CCOc1ccc(F)c(CCNC(=O)Nc2ccc(Br)cn2)c1Cl`, the IC50 was more than 2400 nM in assay [1] (pH 7.8, 37 °C) and 4 nM in assay [2] (pH 7.8, 37 °C).

`COc1ccc(OC)c(CCNC(=O)Nc2ccc(Cl)cn2)c1F` [1-(5-chloropyridin-2-yl)-3-[2-(2-fluoro-3,6-dimethoxyphenyl)ethyl]urea] had an IC50 in assay [2] (pH 7.8, 37 °C) of 3 nM.

In turn, `COc1c(C(C)=O)ccc(F)c1CCNC(=O)Nc1ccc(Cl)cn1` [1-(5-chloropyridin-2-yl)-3-[2-(3-acetyl-6-fluoro-2-methoxyphenyl)ethyl]urea] came in with an IC50 in assay [1] (pH 7.8, 37 °C) of more than 2700 nM. For `COc1ccc(C(C)=O)c(F)c1CCNC(=O)Nc1ccc(Cl)cn1` [N-[2-(3-Acetyl-2-fluoro-6-methoxyphenethyl)]-N-[2-(5-chloropyridy)]urea], in assay [1] (pH 7.8, 37 °C), the IC50 was more than 2700 nM. Consider `O=C(Nc1ccc(Cl)cn1)NC1CC1c1c(F)ccc(O)c1Cl` (stereo not drawn) [N-[cis-2-(2-Chloro-6-fluoro-3-hydroxyphenyl)cyclopropyl]-N-[2-(5-chloropyridyl)]urea], for which the half-maximal inhibitory concentration (IC50) in assay [1] is more than 2700 nM.

On to `CCC(=O)c1ccc(F)c(C2CC2NC(=O)Nc2ccc(C#N)cn2)c1O` (stereo not drawn) [N-[cis-2-(6-Fluoro-2-hydroxy-3-propionylphenyl)cyclopropyl]-N-[2-(5-cyanopyridyl)]urea], for which the IC50 in assay [1] was determined as 97 nM.

On to `COc1ccc2c(c1)N(C(=O)OC(C)C)[C@@H](CSC)C(=S)N2` [propan-2-yl (2S)-7-methoxy-2-[(methylsulfanyl)methyl]-3-sulfanylidene-1,2,3,4-tetrahydroquinoxaline-1-carboxylate], for which the IC50 in assay [3] is 9 nM; in assay [1], 56 nM; in assay [2] it was 8 nM.
